This is an account of results in patent publication US6043228A, “O^6 -substituted guanine derivatives, a process for their preparation and their use in treating tumor cells” (Cancer Research Campaign Technology Limited, priority 1993, dated 2000).

For one series, the system named is DBA2 mice. The experiment in a line: Toxicity of inactivators in combination with BCNU in DBA2 mice. The note with it: Table 11. The class given is in vivo, mouse. From the text: All agents were given as a single i.p. dose
The subject of series [1] is human melanoma xenografts. The series is described as follows: Sensitization of human melanoma xenografts to temozolomide. The class given is in vivo, nude mice. The conditions noted are these: for sensitizing human melanoma xenografts to growth inhibitory effects of temozolomide, in words: inactivator i.p. 1 hour before temozolomide 100 mg/kg i.p., five consecutive days (FIGS. 21A, 22A). How it is done: Xenograft tumour measurements were taken every 1-2 days by workers using digital calipers. Tumour volume was calculated using the formula (h×w×l)π/6. The experimental animals were also weighed every 1-2 days. Measurements continued until tumours in the control animals reached the maximum allowable volume (i.e. 1 cm×1 cm×1 cm).
(§1) Mice were treated with the inactivator as a suspension in corn oil by intraperitoneal injection (i.p.) or by oral gavage (p.o.) 60 mins prior to temozolomide (100 mg/kg in 20% DMSO in phosphate-buffered saline) which was always given by intraperitoneal injection: this schedule was repeated on days 1 to 5 inclusive. Controls received vehicle alone, inactivator alone or temozolomide alone.
(§2) The mice in the tests shown in FIGS. 19-24 were Swiss mouse derived athymic male mice ([…]) from ZENECA Pharmaceuticals, Mereside, Alderley Park, Macclesfield, Cheshire SK10 4T6, England.
A general note: Xenograft models place foreign cells or tissue in a host animal.

Series [2] deals with nude mice. The series is described as follows: Survival of xenograft-bearing nude mice given inactivator plus temozolomide. The class given is in vivo, mouse. The protocol:
as §1, §2

A further series has as its target T1, ATase in Raji cells (Homo sapiens, UniProt P16455).
T1 construct: endogenous in cells; host or cells: Raji
T1 sequence (P16455 1-207): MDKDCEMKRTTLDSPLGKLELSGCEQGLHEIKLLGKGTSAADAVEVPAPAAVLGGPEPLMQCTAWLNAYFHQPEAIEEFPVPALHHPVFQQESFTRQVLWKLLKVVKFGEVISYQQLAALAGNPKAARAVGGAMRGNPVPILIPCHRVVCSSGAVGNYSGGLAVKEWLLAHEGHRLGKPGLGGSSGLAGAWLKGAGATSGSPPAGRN
The experiment in a line: Inactivation of ATase activity in mammalian cells: Raji. The class given is cell-based. The protocol:
Mammalian cells were cultured under standard conditions. For example, Raji (a human lymphoblastoid cell line from a Burkitt's lymphoma) cells were grown in suspension culture in RPMI medium supplemented with 10% horse serum. A375M cells are human melanoma cells from which the xenografts described below were established following subcutaneous injection into nude mice: WiDr cells are a human colon carcinoma cell line: Hamster+120 cells are a mitozolomide-selected subline of a Chinese hamster lung fibroblast V79 cell line called RJKO: Yoshida cells are a rat carcinosarcoma cell line and YRbus is a busulphan resistant subline thereof: XP cells are an SV40-transformed fibroblast cell line originally from the skin of a Xeroderma piamentosum patient, pHMGhAT2b cells are a clone of these cells that have been transfected with a mammalian cell expression vector containing the human ATase cDNA and pHMGla cells are a clone that have been transfected with the expression vector only (i.e. one not containing the human ATase cDNA). Cell pellets were resuspended in cold (4° C.) buffer I containing 2 μg/ml leupeptin and sonicated for 10 seconds at 12μ peak to peak distance. After cooling in ice, the cells were sonicated for a further 10 seconds at 18μ. […]

The next series concerns Raji cells. The experiment in a line: Sensitization of Raji cells to BCNU (XTT assay). The class given is cell-based, human. How it is done:
Following a 2 hour incubation at 37° C., medium containing either increasing doses of BCNU, temozolomide or equivalent vehicle was added and the cells allowed to grow for 6 days. At this time XTT solution was added and the cells incubated for a further 4 hours at 37° C. The resulting red/orange formazan reaction product was quantified by measuring absorption at 450 nm on a microtitre platereader.
A general note: Formazan colour is commonly taken as a measure of viable cells.

Series [3] relates to Chinese Hamster V79 cells. The experiment in a line: Sensitivity of mammalian cells to the inactivators alone: V79 cells. The class given is cell-based. The note with it: inactivator alone, up to 600 μM. How it is done: In order to assess the effects on cell growth alone, Xeroderma pigmentosum cells and Chinese Hamster V79 cells were exposed to increasing concentrations (up to 600 μM) of selected inactivators for 2 h at 37°. In some cases, the inactivators were allowed to undergo hydrolysis at 37° C. for 20 hours and then added to Raji cells in order to assess the extent to which the decomposition products of the agents might inhibit cell growth. After 6 days the extent of cell growth was determined as described above.

Series [4] relates to human bone marrow granulocyte macrophage colony forming cells. The experiment in a line: Sensitization of bone marrow cells to temozolomide (GM-CFC assay). The class given is cell-based. The note with it: for sensitization of human bone marrow cells to temozolomide, in words: 10 μM inactivator. From the text: For the granulocyte/macrophage colony-forming cell (GM-CFC) assay primary human bone marrow samples were obtained from patients undergoing cardiothoracic surgery. […] The colonies represented precursor cells of the granulocyte/macrophage lineage (huGM-CFC). Survival was expressed as a % of the number of colonies at zero dose temozolomide.

The next series deals with A375 tumour xenografts. The experiment in a line: Xenograft study: sensitization of A375 tumour xenografts to BCNU. The class given is in vivo, nude mice. The note with it: inactivator 30 or 60 mg/kg + BCNU 10-25 mg/kg i.p. (FIGS. 9-13). How it is done: OX6 OPT, England (OLAC mice). […] For this reason lower doses were administered. Cells (10^6) in 100 μl of PBS were injected subcutaneously into the right-hand flank of 8-10 week old nu/nu athymic mice. […] The experimental animals were also weighed every 1-2 days. Measurements continued until tumours in the control animals reached the maximum allowable volume (i.e. 1 cm×1 cm×1 cm).

Series [5] relates to nude mice. The series is described as follows: Xenograft study: survival of nude mice given inactivator plus BCNU. The conditions noted are these: FIGS. 9-13. From the text: BALB-C derived athymic male mice (nu/nu athymic) weighing between 25-35 g were obtained from the in-house breeding colony of the Paterson Institute for Cancer Research, Christie Hospital NHS Trust, Wilmslow Road, Manchester M20 9BX, England (ASU mice). The animals were housed in a sterile environment until required for experiments. In one experiment mice were obtained from Harlan-Olac, Harlan UK Limited, Shaw's Farm, Blackthorn, Bicester, Oxon. OX6 OPT, England (OLAC mice).

Another series has as its system ATase. The series is described as follows: Inactivation of ATase in mammalian cells, summary over human, rat and Chinese hamster cell lines. The class given is cell-based. The note with it: Table 5. The protocol: Mammalian cells were cultured under standard conditions. For example, Raji (a human lymphoblastoid cell line from a Burkitt's lymphoma) cells were grown in suspension culture in RPMI medium supplemented with 10% horse serum. […]
Cells were diluted to 10^6 /ml in culture medium containing either the appropriate concentration of inactivator or an equivalent volume of vehicle (DMSO). […] ATase activity was determined as described above, in duplicate sonicated cell extracts and expressed as the, percentage activity remaining based on that present in the untreated controls (for example 350-450 fm/mg in Raji cells).

Entries after “also recorded” stand apart in the source; their conditions may differ. Read-outs that look alike come from different tables or passages of the source.

Turning to `Nc1nc(OCc2cc(Br)cs2)c2nc[nH]c2n1` [B.4280, O^6-(4-bromothenyl)guanine], the “acute toxicity in combination with BCNU in DBA2 mice, in words” value in the series on DBA2 mice is “considerably less acutely toxic than B.4205 or BeG”. Besides, the “oral versus i.p. administration in sensitizing xenografts to temozolomide, in words” value in series [1] (30 mg/kg p.o. vs 20 mg/kg i.p. (FIG. 24A)) is listed as “almost as effective as i.p. administration”. Further, in series [1], the “sensitizing human melanoma xenografts to growth inhibitory effects of temozolomide, in words” value is “effective in sensitizing; also recorded: about twice as effective as B.4205”. The “toxicity of oral combination versus i.p. route, in words” value in the series with nude mice [2] (with temozolomide (FIG. 24B)) is given as “marginally less toxic than the i.p. route”. Moreover, in the series on nude mice [2] (with temozolomide (FIGS. 21B, 22B)), the “toxicity at equi-effective doses for tumour growth inhibition, in words” value was “less toxic than B.4205”.
Regarding `Nc1nc(OCc2cccs2)c2nc[nH]c2n1` [B.4205, 0^6 -thenylguanine], the IC50 was 0.02 µM on ATase in Raji cells (Table 4, Raji cells, 2 hours at 37° C., read-out: Raji I50) and 0.02 µM at ATase in Raji cells (Table 5, Human Raji, read-out: Inactivation of ATase in Mammalian Cells I50). Also, the “sensitizing Raji cells to growth inhibitory effects of BCNU, in words” value was “more effective than BeG” in the series with Raji cells (0.1 μM inactivator (FIG. 2)) and “equally effective” in the series with Raji cells (1.0 μM inactivator (FIG. 2)). In addition, in [3], the “growth inhibition / toxicity to V79 cells, in words” value is listed as “no such effects were seen”. The figures for the “sensitization of human bone marrow cells to temozolomide, in words” value in series [4] (patient D (FIG. 14)) and in series [4] (patients C & E (FIG. 14)) were “no differential” and “smaller sensitization effect than O^6 -benzylguanine”, respectively. The “sensitization of GM-CFC to cytotoxic effects of temozolomide, in words” value in series [4] (four different patient samples, 10 μM (FIG. 23)) was “only occurred in one patient”. The “sensitization of GM-CFCs to toxic effects of temozolomide, in words” value in series [4] (three human bone marrow samples (FIG. 14)) is recorded as “little or no sensitization”. Further, the “sensitization of A375 xenografts to BCNU (tumour volume), in words” value in the series with A375 tumour xenografts is “comparable to O^6 -benzylguanine (BeG) in reducing tumour volume”. Besides, the “toxicity in combination with BCNU in nude mice, in words” value with nude mice [5] is “substantially less toxic in combination with BCNU than BeG in combination with BCNU; also recorded: very little effect”. The “sensitizing human melanoma xenografts to growth inhibitory effects of temozolomide, in words” value in series [1] is “effective in sensitizing”. Besides, in the series with ATase, the “effectiveness relative to BeG in the cell lines used” value is “up to 7 times”.
